Activity calls are given as the source filed them.
Columns and labels:
[1] = inhibitors of intracellular T. cruzi replication, confirmation, NIH3T3 host cells, beta-gal luminescence (AID 2044); assay type: functional, cell-based;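 note: intracellular parasites grown in NIH/3T3 mouse fibroblasts as host cells; luminescent beta-galactosidase reporter signal from transgenic T. cruzi replicating inside host cells; inhibitors lower the luminescence signal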
[2] = Shn3 3'UTR reporter inhibitors, dose response, cell-based, Clone20 osteoblasts, firefly luciferase, cherry-picked (AID 624132); assay type: functional;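 note: firefly luciferase luminescence from reporter carrying the Shn3 3'UTR in osteoblasts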
[3] = target: 5-hydroxytryptamine receptor 5A (Homo sapiens, UniProt P47898); test: Counterscreen for agonists of OPRM1-OPRD1 heterodimerization: luminescence-based cell-based high throughput dose response assay to identify agonists of 5-hydroxytryptamine (serotonin) 5A receptor (HTR5A). [Related pubchem assays (depositor defined):AID504326, AID504355, AID504692, AID504904, AID504905]; assay type: functional
Sequence of 5-hydroxytryptamine receptor 5A (P47898 whole entry): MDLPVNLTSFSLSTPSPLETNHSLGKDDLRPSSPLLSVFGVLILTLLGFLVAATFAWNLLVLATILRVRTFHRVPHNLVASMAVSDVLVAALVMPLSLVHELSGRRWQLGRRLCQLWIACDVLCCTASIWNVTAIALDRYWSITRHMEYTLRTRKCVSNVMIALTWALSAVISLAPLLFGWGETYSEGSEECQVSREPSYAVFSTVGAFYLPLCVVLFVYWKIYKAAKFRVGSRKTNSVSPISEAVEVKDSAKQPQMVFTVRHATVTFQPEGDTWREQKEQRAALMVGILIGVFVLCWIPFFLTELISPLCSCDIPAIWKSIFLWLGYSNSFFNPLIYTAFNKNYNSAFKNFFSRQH

[4] = target: T1, High affinity choline transporter 1 (Homo sapiens, UniProt Q9GZV3); test: CHT inhibitors, dose response, cell-based, 10-point CRC, membrane potential dye (AID 588401); assay type: functional;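 note: membrane potential dye fluorescence of choline-evoked depolarization via CHT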
T1 sequence (Q9GZV3 whole entry): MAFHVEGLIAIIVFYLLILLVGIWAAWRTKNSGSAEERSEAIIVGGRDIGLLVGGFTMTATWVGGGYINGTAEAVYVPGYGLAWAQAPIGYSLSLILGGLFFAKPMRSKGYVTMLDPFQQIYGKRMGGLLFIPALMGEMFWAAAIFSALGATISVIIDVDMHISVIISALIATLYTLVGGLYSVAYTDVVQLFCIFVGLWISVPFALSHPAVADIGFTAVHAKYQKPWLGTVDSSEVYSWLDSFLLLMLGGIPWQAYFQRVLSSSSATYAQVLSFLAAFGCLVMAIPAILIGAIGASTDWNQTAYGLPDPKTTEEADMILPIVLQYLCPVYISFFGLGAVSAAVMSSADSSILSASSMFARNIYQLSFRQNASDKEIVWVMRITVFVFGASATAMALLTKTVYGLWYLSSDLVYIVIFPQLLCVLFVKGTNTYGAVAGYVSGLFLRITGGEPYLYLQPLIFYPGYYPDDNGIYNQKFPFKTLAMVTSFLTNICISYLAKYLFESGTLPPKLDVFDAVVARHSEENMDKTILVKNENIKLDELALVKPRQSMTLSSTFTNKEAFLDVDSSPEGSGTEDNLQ

[5] = cytotoxicity toward NIH3T3 fibroblasts, dose response, counter-screen, cell-based, ATP luminescence, mouse fibroblasts (AID 2010); assay type: functional;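 note: cells exposed to compound for about 90 hours before reading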
[6] = control 3'UTR Renilla luciferase suppression, dose response, counter-screen for Shn3 inhibitor project, cell-based, Clone20-Shn3RL, cherry-picked (AID 624133); assay type: functional
[7] = target: Delta-type opioid receptor (Homo sapiens, UniProt P41143); test: Counterscreen for agonists of heterodimerization of the mu 1 (OPRM1) and delta 1 (OPRD1) opioid receptors: Luminescence-based cell-based high throughput dose response assay to identify agonists of OPRD1 homodimerization. [Related pubchem assays (depositor defined):AID504326, AID504355, AID504692, AID504904, AID504905]; assay type: functional
Sequence of Delta-type opioid receptor (P41143 whole entry): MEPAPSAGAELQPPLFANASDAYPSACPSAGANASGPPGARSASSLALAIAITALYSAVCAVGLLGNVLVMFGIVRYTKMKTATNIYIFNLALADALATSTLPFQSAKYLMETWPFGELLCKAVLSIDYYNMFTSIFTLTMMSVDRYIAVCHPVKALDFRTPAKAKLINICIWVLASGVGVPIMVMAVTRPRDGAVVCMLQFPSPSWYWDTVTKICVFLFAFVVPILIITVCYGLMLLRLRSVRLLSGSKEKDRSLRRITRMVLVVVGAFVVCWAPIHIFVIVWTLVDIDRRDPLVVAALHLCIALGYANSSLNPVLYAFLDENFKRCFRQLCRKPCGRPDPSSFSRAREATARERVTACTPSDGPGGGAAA

[8] = growth suppression of beta-catenin-knockout colon cells, dose response, cell-based, HCT116, human colon tumor (AID 1045); assay type: functional;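 note: HCT116 colon tumor cells with beta catenin knocked out; cells exposed to compound for 60 hours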
Mu-type opioid receptor = Mu-type opioid receptor (Homo sapiens, UniProt P35372); test: Counterscreen for agonists of heterodimerization of the mu 1 (OPRM1) and delta 1 (OPRD1) opioid receptors: Luminescence-based cell-based high throughput dose response assay to identify agonists of OPRM1 homodimerization.; assay type: functional;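 note: U2OS cells expressing OPRM1 and beta-arrestin as split beta-galactosidase partners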
[9] = growth suppression of PTEN-null colon cells, dose response, cell-based, HCT116 PTEN knockout (AID 1047); assay type: functional;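 note: HCT116 colon tumor cells with PTEN knocked out; cells exposed to compound for 60 hours before readout; potency for loss of cell viability measured by luminescence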
[10] = HepG2 cell cytotoxicity, dose response, cytotoxicity control for Shn3 inhibitor project, CellTiter-Glo, cherry-picked (AID 624134); assay type: functional, cell-based
[11] = target: T1, High affinity choline transporter 1; test: CHT inhibitors, dose response, cell-based, 5-point CRC, membrane potential dye (AID 504840); assay type: functional
Melanocortin receptor 4 = Melanocortin receptor 4 (Homo sapiens, UniProt P32245); assay type: functional, cell-based;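 note: Cell-based assay with luminescence read-out, confirmatory dose-response testing for agonist activity of biased ligands at MC4R; human U2OS cells with tagged receptor and beta-arrestin; potency of agonists that increase receptor coupling to beta-arrestin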
Sequence of Melanocortin receptor 4 (P32245 whole entry): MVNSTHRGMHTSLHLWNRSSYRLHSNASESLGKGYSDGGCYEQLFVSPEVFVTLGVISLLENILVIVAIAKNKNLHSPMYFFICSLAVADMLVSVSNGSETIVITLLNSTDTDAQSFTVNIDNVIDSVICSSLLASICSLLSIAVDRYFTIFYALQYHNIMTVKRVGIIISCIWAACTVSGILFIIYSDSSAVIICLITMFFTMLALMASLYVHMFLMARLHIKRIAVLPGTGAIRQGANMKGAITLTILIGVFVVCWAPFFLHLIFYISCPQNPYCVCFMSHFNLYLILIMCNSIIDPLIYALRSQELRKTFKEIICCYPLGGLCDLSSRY

[12] = target: T2, Sentrin-specific protease 8 (Homo sapiens, UniProt Q96LD8); assay type: functional
T2 sequence (Q96LD8 whole entry): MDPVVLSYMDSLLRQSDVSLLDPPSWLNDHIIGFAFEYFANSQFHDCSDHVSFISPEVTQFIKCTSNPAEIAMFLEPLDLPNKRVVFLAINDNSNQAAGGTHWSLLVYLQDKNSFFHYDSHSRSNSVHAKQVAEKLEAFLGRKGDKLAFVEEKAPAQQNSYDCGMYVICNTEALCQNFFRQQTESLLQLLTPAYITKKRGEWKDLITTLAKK

[13] = target: T2, Sentrin-specific protease 8; assay type: functional; remark: listed apart in the source
[14] = target: T3, Small ubiquitin-related modifier 1 (Homo sapiens, UniProt P63165); test: inhibitors of SUMO1 partner interactions, dose response, biochemical, FRET (AID 624383); assay type: functional; conditions: read-out: IC50_Mean
T3 sequence (P63165 whole entry): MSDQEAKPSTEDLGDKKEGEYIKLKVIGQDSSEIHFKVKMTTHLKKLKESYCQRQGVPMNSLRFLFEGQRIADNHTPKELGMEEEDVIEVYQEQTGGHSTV

[15] = target: T4, Small ubiquitin-related modifier 2 (Homo sapiens, UniProt P61956); test: inhibitors of SUMO2 protein-protein interaction, dose response, selectivity assay for SUMO1 interaction inhibitor project, biochemical, FRET, human SUMO2, uHTS hits (AID 624384); assay type: functional; conditions: read-out: IC50_Mean
T4 sequence (P61956 whole entry): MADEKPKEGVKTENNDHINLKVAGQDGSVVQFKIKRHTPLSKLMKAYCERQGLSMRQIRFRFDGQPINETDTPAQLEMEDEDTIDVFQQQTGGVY

[16] = target: T4, Small ubiquitin-related modifier 2; test: SUMO2–SIM peptide binding inhibitors, dose response, selectivity assay for SUMO1 interaction inhibitor project, biochemical, fluorescence polarization, uHTS hits (AID 624385); assay type: functional; conditions: read-out: IC50_Mean
[17] = target: T3, Small ubiquitin-related modifier 1; test: inhibitors of SUMO1 peptide binding, dose response, biochemical, fluorescence polarization, uHTS hits (AID 624382); assay type: functional; conditions: read-out: IC50_Mean
[18] = target: Melanin-concentrating hormone receptor 1 (Homo sapiens, UniProt Q99705); test: Late-stage fluorescence-based counterscreen for antagonists of the G-protein coupled receptor 7 (GPR7): cell-based dose response assay to identify antagonists of the melanin-concentrating hormone receptor 1 (MCHR1) Set 6.; assay type: functional
Sequence of Melanin-concentrating hormone receptor 1 (Q99705 whole entry): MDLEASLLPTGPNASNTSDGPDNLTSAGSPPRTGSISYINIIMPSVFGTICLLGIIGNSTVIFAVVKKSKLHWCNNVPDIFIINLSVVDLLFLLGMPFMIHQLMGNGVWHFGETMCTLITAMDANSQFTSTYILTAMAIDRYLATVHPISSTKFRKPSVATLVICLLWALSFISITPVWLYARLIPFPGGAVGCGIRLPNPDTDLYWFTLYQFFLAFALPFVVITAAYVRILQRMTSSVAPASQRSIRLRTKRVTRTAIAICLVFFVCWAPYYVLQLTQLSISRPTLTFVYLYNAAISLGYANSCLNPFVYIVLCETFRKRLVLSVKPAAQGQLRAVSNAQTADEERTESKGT

[19] = target: T5, Neuropeptides B/W receptor type 1 (Homo sapiens, UniProt P48145); test: GPR7 antagonist potency, late-stage follow-up, cell-based, fluorescence, dose response, set 6 (AID 588583); assay type: functional
T5 sequence (P48145 whole entry): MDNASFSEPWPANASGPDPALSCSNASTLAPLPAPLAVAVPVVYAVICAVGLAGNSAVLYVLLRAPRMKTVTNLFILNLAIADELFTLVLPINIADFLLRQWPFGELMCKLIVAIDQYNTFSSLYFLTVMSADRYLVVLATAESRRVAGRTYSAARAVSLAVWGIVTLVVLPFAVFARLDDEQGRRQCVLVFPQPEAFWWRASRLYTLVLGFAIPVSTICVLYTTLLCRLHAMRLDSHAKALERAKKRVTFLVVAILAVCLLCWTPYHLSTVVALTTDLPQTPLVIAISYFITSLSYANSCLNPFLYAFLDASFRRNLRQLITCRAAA

[20] = target: Long-chain-fatty-acid--AMP ligase FadD28 (Mycobacterium tuberculosis, UniProt P9WQ59); test: Fluorescence polarization aasay to screen for inhibitors that compete for the binding of FadD28 to a bisubstrate Measured in Biochemical System Using Plate Reader - 2147-01_Inhibitor_Dose_CherryPick_Activity.; assay type: functional, Mycobacterium tuberculosis H37Rv
Sequence of Long-chain-fatty-acid--AMP ligase FadD28 (P9WQ59 whole entry): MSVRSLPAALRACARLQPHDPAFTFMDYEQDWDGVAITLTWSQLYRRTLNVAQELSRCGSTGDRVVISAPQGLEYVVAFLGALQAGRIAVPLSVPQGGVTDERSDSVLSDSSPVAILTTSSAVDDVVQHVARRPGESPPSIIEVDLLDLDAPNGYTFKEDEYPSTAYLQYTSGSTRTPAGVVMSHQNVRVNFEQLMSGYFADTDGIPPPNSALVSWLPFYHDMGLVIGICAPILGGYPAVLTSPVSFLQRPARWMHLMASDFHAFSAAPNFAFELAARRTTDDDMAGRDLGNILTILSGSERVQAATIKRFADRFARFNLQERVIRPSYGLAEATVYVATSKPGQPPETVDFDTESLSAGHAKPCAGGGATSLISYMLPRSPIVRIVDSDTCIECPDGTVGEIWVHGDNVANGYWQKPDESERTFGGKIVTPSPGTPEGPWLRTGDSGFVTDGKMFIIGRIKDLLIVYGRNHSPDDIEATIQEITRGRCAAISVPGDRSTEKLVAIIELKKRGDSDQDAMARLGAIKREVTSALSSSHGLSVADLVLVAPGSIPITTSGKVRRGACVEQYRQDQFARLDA

Aurora kinase B = Aurora kinase B (Homo sapiens, UniProt Q96GD4); assay type: functional
Sequence of Aurora kinase B (Q96GD4 whole entry): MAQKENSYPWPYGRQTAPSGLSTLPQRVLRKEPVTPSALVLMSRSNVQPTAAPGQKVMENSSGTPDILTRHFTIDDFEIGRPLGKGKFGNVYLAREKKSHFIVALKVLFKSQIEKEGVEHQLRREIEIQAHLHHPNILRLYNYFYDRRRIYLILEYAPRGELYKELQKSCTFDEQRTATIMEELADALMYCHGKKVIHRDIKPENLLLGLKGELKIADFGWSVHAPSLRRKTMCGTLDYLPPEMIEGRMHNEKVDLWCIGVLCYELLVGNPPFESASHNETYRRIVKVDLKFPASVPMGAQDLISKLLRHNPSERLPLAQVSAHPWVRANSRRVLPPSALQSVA

[21] = target: ALK tyrosine kinase receptor (Homo sapiens, UniProt Q9UM73); assay type: functional;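 note: ALK tested as one member of a kinase panel screen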
Sequence of ALK tyrosine kinase receptor (Q9UM73 whole entry): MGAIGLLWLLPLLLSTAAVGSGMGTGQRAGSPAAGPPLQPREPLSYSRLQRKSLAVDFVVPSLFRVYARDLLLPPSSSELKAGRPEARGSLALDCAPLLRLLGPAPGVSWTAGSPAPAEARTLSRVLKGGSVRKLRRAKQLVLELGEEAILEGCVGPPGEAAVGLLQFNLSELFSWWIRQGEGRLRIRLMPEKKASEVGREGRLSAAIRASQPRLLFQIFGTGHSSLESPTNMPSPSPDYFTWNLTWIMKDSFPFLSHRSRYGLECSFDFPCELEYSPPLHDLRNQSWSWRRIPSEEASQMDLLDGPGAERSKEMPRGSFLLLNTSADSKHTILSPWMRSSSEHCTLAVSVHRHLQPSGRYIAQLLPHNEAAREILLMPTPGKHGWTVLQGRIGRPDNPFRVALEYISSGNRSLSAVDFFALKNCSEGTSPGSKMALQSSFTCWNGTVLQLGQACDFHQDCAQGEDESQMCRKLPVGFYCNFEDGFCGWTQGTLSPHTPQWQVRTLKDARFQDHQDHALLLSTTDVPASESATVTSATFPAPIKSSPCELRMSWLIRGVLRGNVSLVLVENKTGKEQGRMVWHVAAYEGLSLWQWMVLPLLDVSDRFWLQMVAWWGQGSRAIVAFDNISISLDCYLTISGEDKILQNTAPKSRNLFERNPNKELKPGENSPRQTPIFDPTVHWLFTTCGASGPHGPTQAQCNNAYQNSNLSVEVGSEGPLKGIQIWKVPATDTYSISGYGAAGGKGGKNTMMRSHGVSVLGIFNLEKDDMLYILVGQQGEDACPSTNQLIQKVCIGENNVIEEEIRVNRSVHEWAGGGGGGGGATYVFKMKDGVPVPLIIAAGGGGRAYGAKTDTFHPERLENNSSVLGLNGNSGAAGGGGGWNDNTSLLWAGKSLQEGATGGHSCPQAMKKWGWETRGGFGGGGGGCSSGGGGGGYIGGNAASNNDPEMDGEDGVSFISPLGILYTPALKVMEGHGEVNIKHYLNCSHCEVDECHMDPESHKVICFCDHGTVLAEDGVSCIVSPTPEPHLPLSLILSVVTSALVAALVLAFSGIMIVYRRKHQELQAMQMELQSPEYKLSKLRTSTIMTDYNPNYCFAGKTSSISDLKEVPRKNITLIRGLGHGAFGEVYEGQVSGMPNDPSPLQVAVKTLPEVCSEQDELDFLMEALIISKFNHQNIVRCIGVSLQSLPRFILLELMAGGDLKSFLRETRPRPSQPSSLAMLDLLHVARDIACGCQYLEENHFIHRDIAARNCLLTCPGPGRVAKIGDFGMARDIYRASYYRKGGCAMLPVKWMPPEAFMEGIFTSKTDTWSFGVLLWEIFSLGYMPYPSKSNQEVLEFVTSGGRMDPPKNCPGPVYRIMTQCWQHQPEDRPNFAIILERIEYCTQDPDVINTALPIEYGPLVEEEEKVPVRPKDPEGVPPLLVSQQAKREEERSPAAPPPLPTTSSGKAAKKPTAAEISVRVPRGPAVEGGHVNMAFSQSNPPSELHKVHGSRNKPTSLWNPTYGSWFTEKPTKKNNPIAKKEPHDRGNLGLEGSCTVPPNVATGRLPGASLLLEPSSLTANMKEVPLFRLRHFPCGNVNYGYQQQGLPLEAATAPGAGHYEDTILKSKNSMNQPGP

Aurora kinase A = target: T6, Aurora kinase A (Homo sapiens, UniProt O14965); assay type: functional;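 note: value from the Navigating the Kinome kinase panel profiling, panel entry STK6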
T6 sequence (O14965 whole entry): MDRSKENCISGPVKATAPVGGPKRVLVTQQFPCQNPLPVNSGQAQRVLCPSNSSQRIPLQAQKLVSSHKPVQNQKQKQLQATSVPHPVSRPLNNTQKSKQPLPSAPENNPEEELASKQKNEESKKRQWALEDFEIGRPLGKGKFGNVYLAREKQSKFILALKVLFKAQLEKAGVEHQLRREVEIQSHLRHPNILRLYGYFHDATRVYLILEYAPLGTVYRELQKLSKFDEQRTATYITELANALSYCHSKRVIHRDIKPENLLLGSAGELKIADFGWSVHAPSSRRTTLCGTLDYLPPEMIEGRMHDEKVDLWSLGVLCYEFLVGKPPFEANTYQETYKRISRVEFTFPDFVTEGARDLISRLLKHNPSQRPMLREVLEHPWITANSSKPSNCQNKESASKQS

Beta Lactamase = Beta Lactamase (Pseudomonas aeruginosa, UniProt Q932Y6); test: beta-lactamase reporter inhibitor potency, dose response, artefact control for NOD2-RIPK2 interaction inhibitor project, BLA reporter cells, FRET fluorescence (AID 651552); assay type: functional, cell-based
[22] = Fluorescence-based cell-based high throughput dose response assay for inhibitors of the interaction of nucleotide-binding oligomerization domain containing 2 (NOD2) and the receptor-interacting serine-threonine kinase 2 (RIPK2).; assay type: functional; conditions: Homo sapiens
Protein Wnt-3a = Protein Wnt-3a (Mus musculus, UniProt P27467); test: Wnt3a-driven reporter signaling inhibition, dose response, selectivity assay for Gli-SUFU antagonist project, Wnt-LIGHT cells, luminescence (AID 651570); assay type: functional; conditions: read-out: IC50_Mean;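 note: Wnt-LIGHT reporter cells stimulated with conditioned medium from Wnt3a-producing cells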
[23] = target: Vascular endothelial growth factor receptor 2 (Homo sapiens, UniProt P35968); assay type: functional
[24] = LGR2 antagonists, dose response, cell-based, HEK293, CRE-luciferase reporter, cherry pick, set 2 (AID 743343); assay type: functional;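 note: transfected cells were stimulated with diluted bursicon conditioned medium after compound addition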
[25] = A549 cell cytotoxicity, dose response, cytotoxicity control, plate reader, cherry-pick, antagonist series (AID 743412); assay type: functional, cell-based
[26] = MC4R antagonists, dose response, counter-screen for LGR2 antagonist project, cell-based, plate reader, cherry pick (AID 743444); assay type: functional;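 note: transfected HEK 293 cells stimulated with alpha-MSH peptide; potency of inhibitors of the alpha-MSH evoked signal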
Paired box protein Pax-8 = Paired box protein Pax-8 (Homo sapiens, UniProt Q06710); test: inhibitors of PAX8-driven TPO luciferase reporter, dose response, RMG-I cells, cherry-pick (AID 687027); assay type: functional, cell-based;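 note: luciferase reporter driven by Pax8 target thyroperoxidase promoter measured by SteadyGlo luminescence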
[27] = HEK293 cell cytotoxicity, dose response, cytotoxicity control, plate reader, cherry-picked samples (AID 743446); assay type: functional, cell-based
[28] = target: Glucose-6-phosphate 1-dehydrogenase (Homo sapiens, UniProt P11413); test: human G6PD enzyme inhibitors, dose response, selectivity assay for P. falciparum G6PD inhibitor project, biochemical, fluorescence (AID 504792); assay type: functional
Sequence of Glucose-6-phosphate 1-dehydrogenase (P11413 whole entry): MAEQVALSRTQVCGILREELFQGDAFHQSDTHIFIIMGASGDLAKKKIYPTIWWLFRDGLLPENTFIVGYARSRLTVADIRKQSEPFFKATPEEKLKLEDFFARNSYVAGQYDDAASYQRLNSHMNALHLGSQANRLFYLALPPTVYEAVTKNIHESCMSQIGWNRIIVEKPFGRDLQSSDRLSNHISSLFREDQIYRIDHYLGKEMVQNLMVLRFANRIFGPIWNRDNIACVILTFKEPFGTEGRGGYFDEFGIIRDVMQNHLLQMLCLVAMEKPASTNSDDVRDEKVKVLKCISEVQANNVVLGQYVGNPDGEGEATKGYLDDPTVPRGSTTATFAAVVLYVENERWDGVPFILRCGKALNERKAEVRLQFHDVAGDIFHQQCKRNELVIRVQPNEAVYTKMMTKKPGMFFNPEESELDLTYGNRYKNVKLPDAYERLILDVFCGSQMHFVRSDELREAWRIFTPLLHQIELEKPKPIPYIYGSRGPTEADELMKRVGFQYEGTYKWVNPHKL

[29] = non-specific cell cytotoxicity, dose response, cytotoxicity control for PAX8 inhibitor project, plate reader, dry powder samples (AID 743021); assay type: functional, cell-based
[30] = target: Mitochondrial peptide methionine sulfoxide reductase (Bos taurus, UniProt P54149); assay type: functional;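 note: absorbance read-out, biochemical high-throughput dose-response screen for MsrA inhibitors, confirmatory; recombinant bovine MsrA coupled to E. coli TrxB with NADPH and selenocystamine; potency is for inhibitors of MsrA activity on DMSO substrate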
Sequence of Mitochondrial peptide methionine sulfoxide reductase (P54149 whole entry): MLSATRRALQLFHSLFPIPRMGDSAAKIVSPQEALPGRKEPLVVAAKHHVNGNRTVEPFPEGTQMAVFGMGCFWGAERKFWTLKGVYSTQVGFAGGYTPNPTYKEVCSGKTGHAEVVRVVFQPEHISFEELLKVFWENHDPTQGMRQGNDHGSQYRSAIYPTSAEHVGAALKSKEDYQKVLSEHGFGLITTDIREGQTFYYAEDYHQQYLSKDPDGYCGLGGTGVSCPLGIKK

[31] = HepG2 cell cytotoxicity, dose response, cytotoxicity control, plate reader, cherry-pick, antagonist series (AID 743416); assay type: functional, cell-based

SMILES: Cc1ccc(Cn2c(=N)n(CC(O)COc3ccccc3)c3ccccc32)cc1 (centres undefined)
- EC50 [1]: 4.91 µM (active)
- AC50 [2]: 2.46 µM (active)
- EC50 [3]: > 92.5 µM (inactive)
- IC50 [4]: 7.08 µM (active)
- EC50 [5]: 9.05 µM (active)
- AC50 [6]: 3.9 µM (active)
- EC50 [7]: > 92.5 µM (inactive)
- EC50 [8]: 5.07 µM (active)
- EC50 (Mu-type opioid receptor): 35.1 µM (inactive)
- EC50 [9]: 5.49 µM (active)
- AC50 [10]: 21.4 µM (active)
- IC50 [11]: 5.55 µM (active)

SMILES: N#Cc1sc2nc(-c3cccs3)cc(-c3ccc(F)cc3)c2c1N
- EC50 (Melanocortin receptor 4): > 89.2 µM (inactive)

SMILES: Cn1c(NNC(=O)c2c(F)cccc2F)cc(=O)n(C)c1=O
- IC50 [12]: 28 µM (active)
- IC50 [13]: 12.5 µM (active)

SMILES: COc1ccc(-c2csc(/C(C#N)=C\c3ccc(O)c([N+](=O)[O-])c3)n2)cc1OC
- IC50 [14]: 52.1 µM (inactive)
- IC50 [15]: > 66 µM (inactive)
- IC50 [16]: 35.7 µM (inactive)
- IC50 [17]: 51.3 µM (inactive)

SMILES: N#CC(c1ccccc1[N+](=O)[O-])c1c(Cl)cnn(Cc2cccc3ccccc23)c1=O (centres undefined)
- IC50 [18]: 1.26 µM (active)
- IC50 [19]: 1.26 µM (active)

SMILES: CC(C)(C)c1ccc(NC(=O)Nc2ccc(OCC(=O)N3CCOCC3)cc2)cc1
- AC50 [20]: 41.4 µM (active)

SMILES: NC1CCN(C(=O)c2ccc3c(c2)[nH]c(=O)c2cccn23)CC1
- Ki (Aurora kinase B): 0.158 µM (active)
- Ki [21]: > 3.16 µM (inactive)
- Ki (Aurora kinase A): > 2 µM (inactive)

SMILES: N#CC(c1c(F)c(F)c(F)c(F)c1F)c1c(Cl)cnn(Cc2cccc3ccccc23)c1=O (centres undefined)
- IC50 [18]: 1.56 µM (active)
- IC50 [19]: 1.56 µM (active)

SMILES: O=C(NCCCn1ccnc1)c1cnn2c1NC(c1ccccc1)CC2C(F)(F)F (centres undefined)
- IC50 [4]: 4.47 µM (active)
- IC50 [11]: 8.15 µM (active)

SMILES: CC(=O)O/N=C1C=C/C(=C(\C#N)c2ccccc2)C=C/1
- IC50 (Beta Lactamase): 49.8 µM (inactive)
- IC50 [22]: 5.83 µM (active)

SMILES: CCCN1CCC(=O)N([C@H](CSc2ccc(OC)cc2)Cc2ccccc2)CC1
- IC50 (Protein Wnt-3a): 11 µM (active)

SMILES: O=S(=O)(Nc1ccc2c(c1)C(=NO)c1ccccc1-2)c1cccc(Cl)c1
- Ki (Aurora kinase B): 0.00398 µM (active)
- Ki [23]: 3.16 µM (active)
- Ki (Aurora kinase A): > 2 µM (inactive)

SMILES: Cc1ccc(Cl)cc1N=C1C=C(NS(=O)(=O)c2cccs2)c2ccccc2C1=O
- AC50 [24]: 4.71 µM (active)
- AC50 [25]: 10.1 µM (active)
- AC50 [26]: 5.09 µM (active)
- AC50 (Paired box protein Pax-8): 4.82 µM (active)
- AC50 [27]: 7.88 µM (active)
- IC50 [28]: > 80 µM (inactive)
- AC50 [29]: 17.2 µM (active)
- IC50 [30]: 155 µM (inactive)
- AC50 [31]: 8 µM (active)
